Measurements from PMC9386913 (Arthritis Research & Therapy, 2022).

Key:
Format in all cases: cell-based, human
[1] = tested on: TNF, IL-6, and IL-1β transcripts; assay: Cytokine mRNA decay in LPS-stimulated macrophages with actinomycin D; settings: 1 μM CC-99677 with 10 μg/mL actinomycin D, normalized to GAPDH
Source text: After each time point, macrophages were washed with PBS and lysed with RLT Plus Lysis Buffer (Qiagen, Germantown, MD). RNA was isolated using the QiaCube, followed by cDNA preparation using Superscript IV enzyme mix (Invitrogen, Thermo Fisher, Waltham, MA).

LPS-stimulated PBMCs = assay: Cytokine production in LPS-stimulated PBMCs; settings: 0.3, 1, and 3 μM
TTP = assay: Total TTP protein by capillary electrophoresis in LPS-stimulated macrophages; settings: 4 h or 24 h
Description: Monocytes and macrophages were pre-treated for 1 h with DMSO or compound, followed by LPS stimulation (100 ng/mL) for 4 or 24 h (includes 1 h pre-treatment). Medium from the cultured macrophages was used for cytokine analysis using Magpix magnetic beads (Catalog HCYTO – 60K; Millipore Sigma, Burlington, MA). Cell pellets from the macrophage cultures were collected for western blot analysis using capillary electrophoresis to analyze the effect on TTP, with glyceraldehyde 3-phosphate dehydrogenase (GAPDH) used as the house-keeping protein in the capillary electrophoresis. Antibodies against total TTP (CST#7162 Rabbit Monoclonal antibody) and GAPDH (CST#5174 Rabbit Monoclonal antibody) were used to detect the respective proteins.

For `CCOCc1cnc(Cl)nc1Oc1ccc2c(ccc3sc4c(c32)NC[C@@H](C)NC4=O)n1` [CC-99677], the “mRNA decay of TNF, IL-6, and IL-1β transcripts” value [1] was “significantly greater mRNA decay compared with actinomycin D alone”, the GM-CSF production (LPS-stimulated PBMCs; PBMCs from AS patients and healthy volunteers) was “inhibited GM-CSF in PBMCs from AS patients to similar levels as those seen in healthy volunteers” and the TNF production (LPS-stimulated PBMCs; PBMCs from AS patients, 1 h pretreatment, LPS 50 ng/mL) was “concentration-dependent inhibition of TNF production”. The “Total TTP levels (surrogate for TTP phosphorylation state)” value (TTP) was “dose-dependent reduction in total TTP levels”.
